From patent US7902204B2 (priority 2003, dated 2011)

What follows are compounds tested on HIV-1 single-round infectious reporter virus (assay: Single-round infectious HIV-1 luciferase reporter virus infection of HeLa CD4 CCR5 cells). Details: Human immunodeficiency virus 1, HeLa-CD4/CCR5, 72 h, read-out: EC50 Group from Table 1.
Format: cell-based
Experimental: • Virus production—Human embryonic Kidney cell line, 293, propagated in Dulbecco's Modified Eagle Medium (Life Technologies, Gaithersburg, Md.) containing 10% fetal Bovine serum (FBS, Sigma, St. Louis, Mo.). • Virus infection—Human epithelial cell line, HeLa, expressing the HIV-1 receptors CD4 and CCR5 was propagated in Dulbecco's Modified Eagle Medium (Life Technologies, Gaithersburg, Md.) containing 10% fetal Bovine serum (FBS, Sigma, St. Louis, Mo.) and supplemented with 0.2 mg/mL Geneticin (Life Technologies, Gaithersburg, Md.) and 0.4 mg/mL Zeocin (Invitrogen, Carlsbad, Calif.). Virus-Single-round infectious reporter virus was produced by co-transfecting human embryonic Kidney 293 cells with an HIV-1 envelope DNA expression vector and a proviral cDNA containing an envelope deletion mutation and the luciferase reporter gene inserted in place of HIV-1 nef sequences (Chen et al, Ref 41). Transfections were performed using lipofectAMINE PLUS reagent as described by the manufacturer (Life Technologies, Gaithersburg, Md.). Experiment • 1. Compound was added to HeLa CD4 CCR5 cells plated in 96 well plates at a cell density of 1×10^4 cells per well in 100 μl Dulbecco's Modified Eagle Medium containing 10% fetal Bovine serum at a concentration of <20 μM. • 2. 100 μl of single-round infectious reporter virus in Dulbecco's Modified Eagle Medium was then added to the plated cells and compound at an approximate multiplicity of infection (MOI) of 0.01, resulting in a final volume of 200 μl per well and a final compound concentration of <10 μM. • 3. Samples were harvested 72 h after infection. • 4. Viral infection was monitored by measuring luciferase expression from viral DNA in the infected cells using a luciferase reporter gene assay kit (Roche Molecular Biochemicals, Indianapolis, Ind.). Infected cell supernatants were removed and 50 μl of Dulbecco's Modified Eagle Medium (without phenol red) and 50 μl of luciferase assay reagent reconstituted as described by the manufacturer (Roche Molecular Biochemicals, Indianapolis, Ind.) was added per well. Luciferase activity was then quantified by measuring luminescence using a Wallac microbeta scintillation counter. • 5. The percent inhibition for each compound was calculated by quantifying the level of luciferase expression in cells infected in the presence of each compound as a percentage of that observed for cells infected in the absence of compound and subtracting such a determined value from 100. • 6. An EC50 provides a method for comparing the antiviral potency of the compounds of this invention. The effective concentration for fifty percent inhibition (EC50) was calculated with the Microsoft Excel Xlfit curve fitting software. For each compound, curves were generated from percent inhibition calculated at 10 different concentrations by using a four paramenter logistic model (model 205). Table 1 is the key for the data in Tables 2-4.

`N#CC(C(=O)c1c[nH]c2c(Cl)ncnc12)N1CCN(C(=O)c2ccccc2)CC1` (stereo not shown) [Example 1, 2-(4-Benzoyl-piperazin-1-yl)-3-(4-chloro-5H-pyrrolo [3,2-d]pyrimidin-7-yl)-3-oxo-propionitrile] was tested. Which EC50 did it give?
The EC50 was < 1000 nM.

Which EC50 does the source give for `O=C(C(=O)N1CCN(C(=O)c2ccccc2)CC1)c1c[nH]c2c(Cl)ncnc12` [Example 2, 1-(4-Benzoyl-piperazin-1-yl)-2-(4-chloro-5H-pyrrolo[3,2-d]pyrimidin-7-yl)-ethane-1,2-dione] here?
The EC50 was < 1000 nM.

With `Cc1ccn(-c2ncnc3c(C(=O)C(=O)N4CCN(C(=O)c5ccccc5)CC4)c[nH]c23)n1` [Example 3, 1-(4-Benzoyl-piperazin-1-yl)-2-[4-(3-methyl-pyrazol-1-yl)-5H-pyrrolo[3,2-d]pyrimidin-7-yl]-ethane-1,2-dione] as the compound, how does the EC50 read?
Its EC50 is < 1000 nM.

`Cc1cnn(-c2ncnc3c(C(=O)C(=O)N4CCN(C(=O)c5ccccc5)CC4)c[nH]c23)c1` [Example 4, 1-(4-Benzoyl-piperazin-1-yl)-2-[4-(4-methyl-pyrazol-1-yl)-5H-pyrrolo[3,2-d]pyrimidin-7-yl]-ethane-1,2-dione] was tested. Which EC50 did it give?
The EC50 was < 1000 nM.

With `COc1ncnc2c(C(=O)C(=O)N3CCN(C(=O)c4ccccc4)CC3)c[nH]c12` [Example 5, 1-(4-Benzoyl-piperazin-1-yl)-2-(4-methoxy-5H-pyrrolo[3,2-d]pyrimidin-7-yl)-ethane-1,2-dione] as the compound, how does the EC50 read?
The EC50 was < 1000 nM.

With `O=C(C(=O)N1CCN(C(=O)c2ccccc2)CC1)c1c[nH]c2c(-n3cccn3)ncnc12` [Example 6, 1-(4-Benzoyl-piperazin-1-yl)-2-(4-pyrazol-1-yl-5H -pyrrolo[3,2-d]pyrimidin-7-yl)-ethane-1,2-dione] as the compound, how does the EC50 read?
Its EC50 is < 1000 nM.

Which EC50 does the source give for `Cc1ncn(-c2ncnc3c(C(=O)C(=O)N4CCN(C(=O)c5ccccc5)CC4)c[nH]c23)n1` [Example 7, 1-(4-Benzoyl-piperazin-1-yl)-2-[4-(3-methyl-[1,2,4]triazol-1-yl)-5H-pyrrolo[3,2-d]pyrimidin-7-yl]-ethane-1,2-dione] here?
Its EC50 is < 1000 nM.

For `O=C(C(=O)N1CCN(C(=O)c2ccccc2)CC1)c1c[nH]c2c(-n3nccn3)ncnc12` [Example 8, 1-(4-(2H-1,2,3-Triazol-2-yl)-5H-pyrrolo[3,2-d]pyrimidin-7-yl)-2-(4-benzoylpiperazin-1-yl)ethane-1,2-dione], which EC50 is on record?
Its EC50 is < 1000 nM.

How did the EC50 turn out when `O=C(O)c1ccn(-c2ncnc3c(C(=O)C(=O)N4CCN(C(=O)c5ccccc5)CC4)c[nH]c23)n1` [Example 9, 1-{7-[2-(4-Benzoyl-piperazin-1-yl)-2-oxo-acetyl]-5H-pyrrolo[3,2-d]pyrimidin-4-yl}-1H-pyrazole-3-carboxylic Acid] was run?
Its EC50 is < 1000 nM.

Which EC50 does the source give for `CCOc1ncnc2c(C(=O)C(=O)N3CCN(C(=O)c4ccccc4)CC3)c[nH]c12` [Example 10, 1-(4-Benzoylpiperazin-1-yl)-2-(4-ethoxy-5H-pyrrolo[3,2-d]pyrimidin-7-yl)ethane-1,2-dione] here?
Its EC50 is < 1000 nM.

`CC(=O)c1ncnc2c(C(=O)C(=O)N3CCN(C(=O)c4ccccc4)CC3)c[nH]c12` [Example 11, 1-(4-Acetyl-5H-pyrrolo[3,2-d]pyrimidin-7-yl)-2-(4-benzoylpiperazin-1-yl)ethane-1,2-dione] was tested. Which EC50 did it give?
The EC50 was < 1000 nM.

`N#Cc1ncnc2c(C(=O)C(=O)N3CCN(C(=O)c4ccccc4)CC3)c[nH]c12` [Example 12, 7-(2-(4-Benzoylpiperazin-1-yl)-2-oxoacetyl)-5H-pyrrolo[3,2-d]pyrimidine-4-carbonitrile] was tested. Which EC50 did it give?
Its EC50 is < 1000 nM.

With `CN(C)C(=O)c1ccn(-c2ncnc3c(C(=O)C(=O)N4CCN(C(=O)c5ccccc5)CC4)c[nH]c23)n1` [Example 13, 1-(7-(2-(4-Benzoylpiperazin-1-yl)-2-oxoacetyl)-5H -pyrrolo[3,2-d]pyrimidin-4-yl)-N,N-dimethyl-1H-pyrazole-3-carboxamide] as the compound, how does the EC50 read?
Its EC50 is < 1000 nM.

For `CN1CCN(C(=O)c2ccn(-c3ncnc4c(C(=O)C(=O)N5CCN(C(=O)c6ccccc6)CC5)c[nH]c34)n2)CC1` [Example 14, 1-(4-Benzoylpiperazin-1-yl)-2-(4-(3-(1-methylpiperazine-4-carbonyl)-1H-pyrazol-1-yl)-5H-pyrrolo[3,2-d]pyrimidin-7-yl)ethane-1,2-dione], which EC50 is on record?
Its EC50 is < 1000 nM.

`O=C(C(=O)N1CCN(C(=O)c2ccccc2)CC1)c1c[nH]c2c(-n3ccc(-c4ccccc4)n3)ncnc12` [Example 15, 1-(4-Benzoylpiperazin-1-yl)-2-(4-(3-phenyl-1H -pyrazol-1-yl)-5H-pyrrolo[3,2-d]pyrimidin-7-yl)ethane-1,2-dione] was tested. Which EC50 did it give?
The EC50 was < 1000 nM.

With `O=C(C(=O)N1CCN(C(=O)c2ccccc2)CC1)c1c[nH]c2c(-n3ccc(-c4ccc(F)cc4)n3)ncnc12` [Example 16, 1-(4-Benzoylpiperazin-1-yl)-2-(4-(3-(4-fluorophenyl)-1H-pyrazol-1-yl)-5H-pyrrolo[3,2-d]pyrimidin-7-yl)ethane-1,2-dione] as the compound, how does the EC50 read?
The EC50 was < 1000 nM.

`COc1ccc(-c2ccn(-c3ncnc4c(C(=O)C(=O)N5CCN(C(=O)c6ccccc6)CC5)c[nH]c34)n2)cc1` [Example 17, 1-(4-Benzoylpiperazin-1-yl)-2-(4-(3-(4-methoxyphenyl)-1H-pyrazol-1-yl)-5H-pyrrolo[3,2-d]pyrimidin-7-yl)ethane-1,2-dione] was tested. Which EC50 did it give?
Its EC50 is < 1000 nM.

`COc1ccccc1-c1ccn(-c2ncnc3c(C(=O)C(=O)N4CCN(C(=O)c5ccccc5)CC4)c[nH]c23)n1` [Example 18, 1-(4-Benzoylpiperazin-1-yl)-2-(4-(3-(2-methoxyphenyl)-1H-pyrazol-1-yl)-5H-pyrrolo[3,2-d]pyrimidin-7-yl)ethane-1,2-dione] was tested. Which EC50 did it give?
Its EC50 is < 1000 nM.

`O=C(C(=O)N1CCN(C(=O)c2ccccc2)CC1)c1c[nH]c2c(-n3ccc(-c4cccc(C(F)(F)F)c4)n3)ncnc12` [Example 19, 1-(4-Benzoylpiperazin-1-yl)-2-(4-(3-(3-(trifluoromethyl)phenyl)-1H-pyrazol-1-yl)-5H-pyrrolo[3,2-d]pyrimidin-7-yl)ethane-1,2-dione] was tested. Which EC50 did it give?
Its EC50 is < 1000 nM.

With `O=C(C(=O)N1CCN(C(=O)c2ccccc2)CC1)c1c[nH]c2c(-n3cncn3)ncnc12` [Example 20, 1-(4-(1H-1,2,4-Triazol-1-yl)-5H-pyrrolo[3,2-d]pyrimidin-7-yl)-2-(4-benzoylpiperazin-1-yl)ethane-1,2-dione] as the compound, how does the EC50 read?
The EC50 was < 1000 nM.

For `O=C(C(=O)N1CCN(C(=O)c2ccccc2)CC1)c1c[nH]c2c(-n3ccnn3)ncnc12` [Example 21, 1-(4-(1H-1,2,3-Triazol-1-yl)-5H-pyrrolo[3,2-d]pyrimidin-7-yl)-2-(4-benzoylpiperazin-1-yl)ethane-1,2-dione], which EC50 is on record?
The EC50 was < 1000 nM.

For `O=C(C(=O)N1CCN(C(=O)c2ccccc2)CC1)c1c[nH]c2c(-c3cc[nH]n3)ncnc12` [Example 22, 1-(4-(1H-Pyrazol-3-yl)-5H-pyrrolo[3,2-d]pyrimidin-7-yl)-2-(4-benzoylpiperazin-1-yl)ethane-1,2-dione], which EC50 is on record?
Its EC50 is < 1000 nM.

How did the EC50 turn out when `O=C(C(=O)N1CCN(C(=O)c2ccccc2)CC1)c1c[nH]c2c(-c3ccccn3)ncnc12` [Example 24, 1-(4-Benzoylpiperazin-1-yl)-2-(4-(pyridin-2-yl)-5H -pyrrolo[3,2-d]pyrimidin-7-yl)ethane-1,2-dione] was run?
Its EC50 is < 1000 nM.

With `O=C(C(=O)N1CCN(C(=O)c2ccccc2)CC1)c1c[nH]c2c(-c3cccnc3)ncnc12` [Example 25, 1-(4-Benzoylpiperazin-1-yl)-2-(4-(pyridin-3-yl)-5H -pyrrolo[3,2-d]pyrimidin-7-yl)ethane-1,2-dione] as the compound, how does the EC50 read?
The EC50 was < 1000 nM.

`O=C(C(=O)N1CCN(C(=O)c2ccccc2)CC1)c1c[nH]c2c(-c3ccncc3)ncnc12` [Example 26, 1-(4-Benzoylpiperazin-1-yl)-2-(4-(pyridin-4-yl)-5H -pyrrolo[3,2-d]pyrimidin-7-yl)ethane-1,2-dione] was tested. Which EC50 did it give?
Its EC50 is < 1000 nM.

How did the EC50 turn out when `O=C(C(=O)N1CCN(C(=O)c2ccccc2)CC1)c1c[nH]c2c(-c3cnccn3)ncnc12` [Example 27, 1-(4-Benzoylpiperazin-1-yl)-2-(4-(pyrazin-2-yl)-5H -pyrrolo[3,2-d]pyrimidin-7-yl)ethane-1,2-dione] was run?
Its EC50 is < 1000 nM.

For `O=C(C(=O)N1CCN(C(=O)c2ccccc2)CC1)c1c[nH]c2c(-c3cncnc3)ncnc12` [Example 28, 1-(4-Benzoylpiperazin-1-yl)-2-(4-(pyrimidin-5-yl)-5H-pyrrolo[3,2-d]pyrimidin-7-yl)ethane-1,2-dione], which EC50 is on record?
Its EC50 is < 1000 nM.

`O=C(C(=O)N1CCN(C(=O)c2ccccc2)CC1)c1c[nH]c2c(-c3ccnnc3)ncnc12` [Example 29, 1-(4-Benzoylpiperazin-1-yl)-2-(4-(pyridazin-4-yl)-5H-pyrrolo[3,2-d]pyrimidin-7-yl)ethane-1,2-dione] was tested. Which EC50 did it give?
The EC50 was < 1000 nM.
